Assay results: US4584187A, “Imaging agent and method of use” (priority 1981, dated 1986)
Where two headings read alike, the source gives them in different places. Each block holds one compound with its values, some of them ahead of it.

Assays:
Pheochromocytomas (PHEO) = assay: Scintigraphic localization of pheochromocytomas with I-131-mIBG in patients and controls; format: in vivo, human
Method: Pheochromocytomas (PHEO) were localized with I-131-meta-iodobenzylguanidine(^131 I-mIBG). Five hypertensive patients without PHEO served as controls. I-131-mIBG, 0.5 mCi, was given i.v. Images of areas of interest were made at 24, 48 and 72 hours post-injection. Adrenal (tumor) uptake was estimated with a semioperator-independent computer algorithm. All patients with sporadic PHEO gave clinical and hormonal evidence of their disease.

adrenal medulla = assay: MIBG adrenal imaging in MEN-2 patients; format: in vivo, human; settings: for MIBG Adrenal Imaging: 1 and 2 days
Method: To display adrenal medullary abnormalities, 500 μCi of ^131 I-mIBG was injected into 6 patients from 5 families with MEN-2 and scintiscans were performed 1 and 2 days later. Percent administered dose uptake was calculated using a semioperator independent algorithm. Adrenal medullary function was assessed by plasma norepinephrine (N) and epinephrine (E) and urinary N, E, metanephrine (M), and normetanephrine (NM) levels.

[1] = Stability of radiolabeled compound on storage in solution; format: physicochemical; settings: 4° C., dark
Excerpt: The radiochemical purity was greater than 98% as determined by thin-layer chromotography on silica gel G using two solvent systems: (1) 1/l ethyl acetate: ethanol (Rf=0.0; Rf of free radioiodide=0.60); (2) 3/l n-propanol: 10% ammonium hydroxide (Rf=0.15, Rf of free radioiodide=0.75, Rf of meta-iodobenzylamine=0.35). […] Final […].

[2] = design: species or system rats; settings: rat, in vivo, iv, 30 min
Method: (§1) Biological tissue distribution studies were performed on rats, dogs and monkeys injected intravenously with 25 μCi and 100 μCi respectively of I-125 iodobenzylguanidine in an average volume of 0.3 ml, 2 ml, and 1 ml respectively. Representative samples of tissues were counted in an autogamma counter with corrections made for radioactive decay, background, and counter efficiency. To normalize for differences in animal weights, tissue concentrations are expressed as percent kilogram dose per gram.

[3] = Biological tissue distribution of I-125 iodobenzylguanidine in dogs; format: in vivo, Female Mongrel Dogs
Method: as §1

[4] = design: species or system Rhesus Monkeys; settings: rhesus monkey, in vivo, iv, 180 min
Method: as §1

[5] = test system: adrenergic neurons of the heart and chromaffin granules of the adrenal medulla; assay: Localization in adrenergic tissues; format: in vivo

- decomposition on storage ([1]; up to 4 days as sulfate salt in water or physiological saline, I-131): no detectable decomposition
SMILES: N=C(N)NCc1cccc([131I])c1 [^131 I-mIBG, I^131 -meta-iodobenzylguanidine]
- activity seen in malignant (metastatic) PHEO (Pheochromocytomas (PHEO); another patient with malignant (metastatic) PHEO): only ill-defined activity was seen
- scintigrams in PHEO patients (Pheochromocytomas (PHEO); each of eight PHEO patients, 0.5 mCi i.v., 24, 48 and 72 hours): located abnormal collections of activity
- patients in whom abnormalities correspond to PHEOs subsequently excised (Pheochromocytomas (PHEO); eight PHEO patients, 0.5 mCi i.v.): 7 of the 8
- scintigraphic image of adrenal glands in control subjects (Pheochromocytomas (PHEO); five hypertensive controls without PHEO, 0.5 mCi i.v., 24, 48 and 72 hours): little or no scintigraphic image of their adrenal glands
- activity seen in malignant (metastatic) PHEO (Pheochromocytomas (PHEO); one patient with malignant (metastatic) PHEO): multiple areas of activity were seen in the skull, chest and abdomen
- MIBG Adrenal Imaging (adrenal medulla; patient 1 (apparently unaffected, plasma/urine normal), 500 μCi): Nonvisualized
- MIBG Adrenal Imaging (adrenal medulla; patient 2 (MEN 2a, plasma/urine normal), 500 μCi): Nonvisualized
- MIBG Adrenal Imaging (adrenal medulla; patient 3 (MEN 2a, urine M raised), 500 μCi): Faint bilateral
- MIBG Adrenal Imaging (adrenal medulla; patient 4 (MEN 2b, plasma N, urine NM raised), 500 μCi): Distinct bilateral
- MIBG Adrenal Imaging (adrenal medulla; patient 5 (MEN 2a, plasma N,E, urine E,NM,M raised), 500 μCi): Distinct bilateral
- MIBG Adrenal Imaging (adrenal medulla; patient 6 (MEN 2a, plasma N,E, urine E,NM,M raised), 500 μCi): Asymmetric bilateral
- scintigraphy of right adrenal gland (adrenal medulla; patient 6, confirmed at surgery, only irregular area on CT): two distinct tumors
- adrenal imaging, patients 1 and 2 (adrenal medulla; patients 1 and 2, pattern recognized by control studies as normal): Neither patient 1 nor patient 2, who was affected with medullary thyroid carcinoma, showed adrenal imaging
- percent uptake by the adrenal glands versus hormone values (adrenal medulla; remaining 4 patients (3-6), 500 μCi): increased proportionally to the urine and plasma hormone values

SMILES: N=C(N)NCc1cccc([125I])c1 [I-125 iodobenzylguanidine]
- Tissue concentration, Blood (Mean ± S.E.M.) [2]: .03 ± .00 % Kg Dose/g
- Tissue concentration, Heart (Mean ± S.E.M.) [2]: 1.09 ± .06 % Kg Dose/g
- Tissue concentration, Liver (Mean ± S.E.M.) [2]: .36 ± .02 % Kg Dose/g
- Tissue concentration, Lung (Mean ± S.E.M.) [2]: .70 ± .06 % Kg Dose/g
- Tissue concentration, Muscle (Mean ± S.E.M.) [2]: .25 ± .02 % Kg Dose/g
- Tissue concentration, Thyroid (Mean ± S.E.M.) [2]: .76 ± .04 % Kg Dose/g
- Tissue concentration, Liver (Mean ± S.E.M.) ([3]; dog, in vivo, iv, 30 min): 0.34 ± .03 % Kg Dose/g
- Tissue concentration, Lung (Mean ± S.E.M.) ([3]; dog, in vivo, iv, 30 min): 0.22 ± .06 % Kg Dose/g
- Tissue concentration, Muscle (Mean ± S.E.M.) ([3]; dog, in vivo, iv, 30 min): 0.02 ± .00 % Kg Dose/g
- Tissue concentration, Thyroid (Mean ± S.E.M.) ([3]; dog, in vivo, iv, 30 min): 0.56 ± .07 % Kg Dose/g
- Tissue concentration, Adrenal Cortex (Mean ± S.E.M.) ([3]; dog, in vivo, iv, 120 min): 0.39 ± .05 % Kg Dose/g
- Tissue concentration, Adrenal Medulla (Mean ± S.E.M.) ([3]; dog, in vivo, iv, 120 min): 6.29 ± .25 % Kg Dose/g
- Tissue concentration, Blood (Mean ± S.E.M.) ([3]; dog, in vivo, iv, 120 min): 0.02 ± .00 % Kg Dose/g
- Tissue concentration, Heart (Mean ± S.E.M.) ([3]; dog, in vivo, iv, 120 min): 0.50 ± .10 % Kg Dose/g
- Tissue concentration, Liver (Mean ± S.E.M.) ([3]; dog, in vivo, iv, 120 min): .017 ± .05 % Kg Dose/g
- Tissue concentration, Lung (Mean ± S.E.M.) ([3]; dog, in vivo, iv, 120 min): 0.46 ± .13 % Kg Dose/g
- Tissue concentration, Muscle (Mean ± S.E.M.) ([3]; dog, in vivo, iv, 120 min): 0.04 ± .00 % Kg Dose/g
- Tissue concentration, Adrenal Cortex (Mean ± S.E.M.) ([3]; dog, in vivo, iv, 2880 min): 0.10 ± .01 % Kg Dose/g
- Tissue concentration, Adrenal Medulla (Mean ± S.E.M.) ([3]; dog, in vivo, iv, 2880 min): 13.6 ± 1.1 % Kg Dose/g
- Tissue concentration, Blood (Mean ± S.E.M.) ([3]; dog, in vivo, iv, 2880 min): 0.01 ± .00 % Kg Dose/g
- Tissue concentration, Heart (Mean ± S.E.M.) ([3]; dog, in vivo, iv, 2880 min): 0.06 ± .01 % Kg Dose/g
- Tissue concentration, Liver (Mean ± S.E.M.) ([3]; dog, in vivo, iv, 2880 min): 0.02 ± .00 % Kg Dose/g
- Tissue concentration, Lung (Mean ± S.E.M.) ([3]; dog, in vivo, iv, 2880 min): 0.03 ± .00 % Kg Dose/g
- Tissue concentration, Muscle (Mean ± S.E.M.) ([3]; dog, in vivo, iv, 2880 min): 0.02 ± .00 % Kg Dose/g
- Tissue concentration, Adrenal Cortex (Mean ± S.E.M.) ([3]; dogs (2), i.v., 30 min, adrenal cortex): 0.61 ± .02 % Kg Dose/g
- Tissue concentration, Adrenal Medulla (Mean ± S.E.M.) ([3]; dogs (2), i.v., 30 min, adrenal medulla): 5.35 ± .71 % Kg Dose/g
- Tissue concentration, Blood (Mean ± S.E.M.) ([3]; dogs (2), i.v., 30 min, blood): 0.02 ± .00 % Kg Dose/g
- Tissue concentration, Heart (Mean ± S.E.M.) ([3]; dogs (2), i.v., 30 min, heart): 0.47 ± .02 % Kg Dose/g
- Tissue concentration, Thyroid (Mean ± S.E.M.) ([3]; dogs (2), i.v., 2 hours, thyroid): 0.56 ± .05 % Kg Dose/g
- Tissue concentration, Thyroid (Mean ± S.E.M.) ([3]; dogs (2), i.v., 48 hours, thyroid): 1.27 ± .47 % Kg Dose/g
- Tissue concentration, Adrenal Cortex (Mean ± S.E.M.) [4]: 0.42 ± .12 % Kg Dose/g
- Tissue concentration, Adrenal Medullae (Mean ± S.E.M.) [4]: 2.69 ± .28 % Kg Dose/g
- Tissue concentration, Blood (Mean ± S.E.M.) [4]: 0.02 ± .00 % Kg Dose/g
- Tissue concentration, Heart (Mean ± S.E.M.) [4]: 0.64 ± .03 % Kg Dose/g
- Tissue concentration, Liver (Mean ± S.E.M.) [4]: 0.76 ± .03 % Kg Dose/g
- Tissue concentration, Lung (Mean ± S.E.M.) [4]: 0.17 ± .00 % Kg Dose/g
- Tissue concentration, Muscle (Mean ± S.E.M.) [4]: 0.02 ± .00 % Kg Dose/g

- radio-composition (decomposition) on storage ([1]; up to 4 days as sulfate salt in water or physiological buffered saline, I-123): minimal detectable radio-composition
SMILES: N=C(N)NCc1cccc([123I])c1 [I^123 -meta-iodobenzylguanidine]

SMILES: N=C(N)NCc1cccc(I)c1 [meta-iodobenzylguanidine, Meta-iodobenzylguanidine]
- accumulation in adrenergic tissues ([5]; compared with norepinephrine and guanethidine): accumulated in adrenergic tissues in a manner similar to norepinephrine and guanethidine
- localization ([5]; heart and adrenal medulla): localizes in the adrenergic neurons of the heart and chromaffin granules of the adrenal medulla
